Laboratory results as given in paper PMC2858875 (Chemistry & biology, 2010).

Tests used:
all PI3K isoforms = conditions: at 300nM; ref Camps et al., 2005; cited from earlier work
[1] = tested on: MCP-1 stimulated Ser473 p-Akt production in THP-1 monocytes; assay: THP-1 signaling assay, MCP-1 stimulated Ser473 p-Akt; type: cell-based; conditions: 100nM MCP-1 for 5 minutes, FACS
[2] = tested on: M-CSF stimulated Ser473 p-Akt production in THP-1 monocytes; assay: THP-1 signaling assay, M-CSF stimulated Ser473 p-Akt; type: cell-based; conditions: 50ng/mL CSF-1 for 7 minutes, FACS
PI3Kδ = target: T1, PI3Kδ (Homo sapiens, UniProt O00329); assay: Class I PI3K kinase assay; conditions: biochemical assay, 10μM ATP
T1 sequence (O00329 1-1044): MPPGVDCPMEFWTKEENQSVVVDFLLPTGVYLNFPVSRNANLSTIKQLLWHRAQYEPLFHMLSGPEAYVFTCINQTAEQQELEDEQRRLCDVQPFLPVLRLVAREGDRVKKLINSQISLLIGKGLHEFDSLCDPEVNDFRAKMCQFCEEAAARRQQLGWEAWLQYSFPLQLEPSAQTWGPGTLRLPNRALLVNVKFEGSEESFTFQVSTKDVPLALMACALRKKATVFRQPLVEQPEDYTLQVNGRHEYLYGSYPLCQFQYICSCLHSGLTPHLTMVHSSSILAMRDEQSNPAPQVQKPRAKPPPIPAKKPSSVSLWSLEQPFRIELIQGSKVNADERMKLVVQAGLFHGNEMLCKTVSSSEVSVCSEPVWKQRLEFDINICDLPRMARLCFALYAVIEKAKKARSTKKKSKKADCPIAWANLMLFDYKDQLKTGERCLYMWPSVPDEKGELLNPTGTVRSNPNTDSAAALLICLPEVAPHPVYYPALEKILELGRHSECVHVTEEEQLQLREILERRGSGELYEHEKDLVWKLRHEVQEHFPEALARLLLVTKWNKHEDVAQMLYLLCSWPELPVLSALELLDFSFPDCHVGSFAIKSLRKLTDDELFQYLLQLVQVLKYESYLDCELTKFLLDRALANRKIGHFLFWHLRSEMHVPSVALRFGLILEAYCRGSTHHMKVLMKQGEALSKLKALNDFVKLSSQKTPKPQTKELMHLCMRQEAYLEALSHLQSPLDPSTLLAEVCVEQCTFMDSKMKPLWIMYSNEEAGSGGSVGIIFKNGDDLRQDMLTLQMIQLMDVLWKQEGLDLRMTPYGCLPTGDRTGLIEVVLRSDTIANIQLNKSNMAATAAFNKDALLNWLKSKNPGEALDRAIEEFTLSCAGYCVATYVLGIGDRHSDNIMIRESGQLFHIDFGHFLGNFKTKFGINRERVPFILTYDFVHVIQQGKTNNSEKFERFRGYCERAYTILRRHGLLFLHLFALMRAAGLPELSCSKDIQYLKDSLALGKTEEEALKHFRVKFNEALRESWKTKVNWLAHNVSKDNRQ

PBMC/HUVEC co-culture [3] = tested on: PBMC/HUVEC co-culture
PBMC/HUVEC co-culture [4] = type: cell-based, human

O=C1NC(=O)/C(=C\c2ccc3nccnc3c2)S1 [AS605240]
inhibition of all PI3K isoforms (all PI3K isoforms): inhibits all PI3K isoforms | block of MCP-1 stimulated Ser473 p-Akt production [1]: blocked | block of M-CSF stimulated Ser473 p-Akt production [2]: ineffective | potency against PI3Kδ (in words) (PI3Kδ): do not significantly inhibit PI3Kδ at the doses tested

Cc1ccccc1-n1c(Cn2cnc3c(N)ncnc32)nc2cccc(C)c2c1=O [IC87114]
E-selectin expression in directly stimulated HUVECs (HUVECs; 3C system): did not inhibit E-selectin expression

COc1ccc2c(c1OC)N=C(NC(=O)c1cccnc1)N1CCN=C21 [PIK90]
cell viability (PBMC/HUVEC co-culture [3]): little effect | CD40 level (PBMC/HUVEC co-culture [3]; LPS system): significantly reduced | HUVEC viability: sulforhodamine B (SRB) protein binding (HUVECs): < -0.3 log ratio | HLA-DR level (HUVECs; 3C system): strongly inhibited | urokinase receptor (CD87/uPAR) level (HUVECs; 3C system): strongly inhibited | HUVEC proliferation (HUVECs; HUVEC-only culture): inhibited HUVEC proliferation | CCL2/MCP-1 production (PBMC/HUVEC co-culture [4]): modest effects | CD38 production (PBMC/HUVEC co-culture [4]): modest effects | PBMC proliferation (PBMC/HUVEC co-culture [4]): decrease
